This note sets out measurements from patent publication US20110118314A1, “PIPERIDINE ANALOGS AS GLYCOGEN SYNTHASE ACTIVATORS” (priority 2009, published 2011).

This experiment concerns glycogen synthase. Description: Glycogen Synthase (GS) Assay. The experiment is classed as biochemical. Particulars: for EC50: compound concentration needed to give 50% maximum activation; for GS SC200: compound concentration needed to stimulate 200% of the enzyme activity. The protocol: The following tests were carried out in order to determine the activity of the compounds of formula (I).
Twelve μL per well of substrate solution containing glycogen (4.32 mg/mL), 2.67 mM UDP-glucose, 21.6 mM phospho(enol)pyruvate and 2.7 mM NADH in 30 mM glycylglycine, pH 7.3 buffer was added into a polystyrene 384-well assay plate (BD Biosciences).
Compound solutions (8 μL/well) at various concentrations (0-300 μM) were added to the assay plate (columns 5-24). Compound solution contains 30 mM glycylglycine, pH 7.3, 40 mM KCl, 20 mM MgC12, 9.2% DMSO, with (columns 15-24) or without (columns 5-14) 20 mM glucose 6-phosphate.
Enzyme solution (12 μL/well) containing glycogen synthase (16.88 μg/mL), pyruvate kinase (0.27 mg/mL), lactate dehydrogenase (0.27 mg/mL) in 50 mM Tris-HCl, pH 8.0, 27 mM DTT and bovine serum albumin (BSA, 0.2 mg/mL) was added to the assay plate (columns 3-24). As a blank control, enzyme solution without glycogen synthase was added into the top half wells of columns 1-2. To the bottom half wells of columns 1-2 were added a known activator, glucose 6-phosphate (at final concentration 5 mM) in addition to the enzyme solution. The reaction mixture was incubated at room temperature. The assay plate was then read for absorbance at 340 nm on an Envision reader every 3 minutes up to a total of 15 minutes.
The enzyme activity (with or without compound) was calculated by the reaction rate and represented by the optical density change (SOD) per minute. Percent stimulation of glycogen synthase activity by a compound at various concentrations was calculated by the following formula: […]
where Rs is the reaction rate of the enzyme in the presence of compound and Rt is the reaction rate of the enzyme in the absence of compound.
SC200 is defined as the compound concentration that is needed to stimulate 200% of the enzyme activity. EC50 is defined as the compound concentration that is needed to give 50% maximum activation.
Compounds from Example 1 through Example 36 were assayed according to assay procedures described above and the results are listed in Table 1 below: […]

SMILES strings stand for the structures.

Turning to `COc1cc(F)c(F)cc1-c1ccc(OC[C@@H]2CCCN(C(=O)N(C)CC(=O)NS(C)(=O)=O)C2)cc1` [Example 33, (R)-3-(4′,5′-Difluoro-2′-methoxy-biphenyl-4-yloxymethyl)-piperidine-1-carboxylic acid (2-methanesulfonylamino-2-oxo-ethyl)-methyl-amide], the EC50 (in general, the concentration that produces a half-maximal response) is 2.03 µM and the “GS SC200” value amounted to 0.41 µM.
In the case of `COc1cc(F)c(F)cc1-c1ccc(OCC2CCN(C(=O)N(C)CC(=O)NS(C)(=O)=O)C2)cc1` (stereo not drawn) [Example 36, 3-(4′,5′-Difluoro-2′-methoxy-biphenyl-4-yloxymethyl)-pyrrolidine-1-carboxylic acid (2-methanesulfonylamino-2-oxo-ethyl)-methyl-amide], the response was half-maximal at 7.68 µM (EC50) and the “GS SC200” value stood at 0.8 µM.
The like results for `COc1cc(F)c(F)cc1-c1ccc(OC[C@H]2CCCN(C(=O)CC(=O)O)C2)cc1` (single isomer, unassigned) [Example 3] were, in that order, 0.35 µM and 0.21 µM.
For `COc1cc(F)c(F)cc1-c1ccc(OC[C@H]2CCCN(C(=O)N(CC(=O)O)Cc3ccccc3)C2)cc1` (single isomer, unassigned) [Example 24], the EC50 came to 4.76 µM and the “GS SC200” value was 1.99 µM.
Regarding `COc1cc(F)c(F)cc1-c1ccc(OC[C@@H]2CCCN(C(=O)N(CC(=O)O)Cc3ccccc3)C2)cc1` (single isomer, unassigned) [Example 23], the response was half-maximal at 0.95 µM (EC50) and the “GS SC200” value is 0.23 µM.
As for `COc1cc(F)c(F)cc1-c1ccc(OCC2CCCN(C(=O)[C@H]3CCC[C@@H]3C(=O)O)C2)cc1` (stereo in doubt) [Example 7, 2-[3-(4′,5′-Difluoro-2′-methoxy-biphenyl-4-yloxymethyl)-piperidine-1-carbonyl]-cyclopentanecarboxylic acid], the EC50 is 6.28 µM and the “GS SC200” value was found to be 1.55 µM.
For `COc1cc(F)c(F)cc1-c1ccc(OCC2CCCN(C(=O)N3CCC[C@H]3C(=O)O)C2)cc1` (stereo partly drawn) [Example 27, (S)-1-[3-(4′,5′-Difluoro-2′-methoxy-biphenyl-4-yloxymethyl)-piperidine-1-carbonyl]-pyrrolidine-2-carboxylic acid], in that order: 1.29 µM and 0.22 µM.
`COc1cc(F)c(F)cc1-c1ccc(OCC2CCCN(C(=O)N(C)Cc3nnn[nH]3)C2)cc1` (stereo not drawn) [Example 30, 3-(4′,5′-Difluoro-2′-methoxy-biphenyl-4-yloxymethyl)-piperidine-1-carboxylic acid methyl-(1H-tetrazol-5-ylmethyl)-amide]: the EC50 was determined as 8.29 µM and the “GS SC200” value amounted to 1.38 µM.
As for `COc1cc(F)c(F)cc1-c1ccc(OCC2CCCN(C(=O)[C@H](CC(=O)O)NC(=O)OC(C)(C)C)C2)cc1` (stereo partly drawn) [Example 12, (S)-3-tert-Butoxycarbonylamino-4-[3-(4′,5′-difluoro-2′-methoxy-biphenyl-4-yloxymethyl)-piperidin-1-yl]-4-oxo-butyric acid], a half-maximal response (EC50) required 11.1 µM and the “GS SC200” value worked out at 3.74 µM.
`COc1cc(F)c(F)cc1-c1ccc(OCC2CCCN(C(=O)[C@H](C)CC(=O)O)C2)cc1` (stereo partly drawn) [Example 8, (R)(+)-4-[3-(4′,5′-Difluoro-2′-methoxy-biphenyl-4-yloxymethyl)-piperidin-1-yl]-3-methyl-4-oxo-butyric acid]: a half-maximal response (EC50) required 8.03 µM and the “GS SC200” value stood at 2.35 µM.
Consider `COc1cc(F)c(F)cc1-c1ccc(OCC2CCN(C(=O)N(C)CC(=O)O)C2)cc1` (stereo not drawn) [Example 26, {[3-(4′,5′-Difluoro-2′-methoxy-biphenyl-4-yloxymethyl)-pyrrolidine-1-carbonyl]-methyl-amino}-acetic acid], for which the midpoint of the response, the EC50, lay at 24.7 µM and the “GS SC200” value is 5.97 µM.
For `COc1cc(F)c(F)cc1-c1ccc(OCC2CCCN(C(=O)[C@@H](CC(=O)O)NC(=O)OC(C)(C)C)C2)cc1` (stereo partly drawn) [Example 10, (R)-3-tert-Butoxycarbonylamino-4-[3-(4′,5′-difluoro-2′-methoxy-biphenyl-4-yloxymethyl)-piperidin-1-yl]-4-oxo-butyric acid], in that order: 5.71 µM and 1.51 µM.
For the compound `COc1cc(F)c(F)cc1-c1ccc(OCC2CCCN(C(=O)C(C)C(=O)O)C2)cc1` (stereo not drawn) [Example 17, 3-[3-(4′,5′-Difluoro-2′-methoxy-biphenyl-4-yloxymethyl)-piperidin-1-yl]-2-methyl-3-oxo-propionic acid], a half-maximal response (EC50) required 0.68 µM and the “GS SC200” value was 0.29 µM.
Regarding `COc1cc(F)c(F)cc1-c1ccc(OCC2CCCN(C(=O)N(CC(=O)NS(C)(=O)=O)Cc3ccccc3)C2)cc1` (stereo not drawn) [Example 34, 3-(4′,5′-Difluoro-2′-methoxy-biphenyl-4-yloxymethyl)-piperidine-1-carboxylic acid benzyl-(2-methanesulfonylamino-2-oxo-ethyl)-amide], a half-maximal response (EC50) required 0.52 µM and the “GS SC200” value came to 0.07 µM.
For `COc1cc(F)c(F)cc1-c1ccc(OCC2CCCN(C(N)=O)C2)cc1` (stereo not drawn) [Example 9, 3-(4′,5′-Difluoro-2′-methoxy-biphenyl-4-yloxymethyl)-piperidine-1-carboxylic acid amide], it took 6.26 µM to reach a half-maximal effect (EC50) and the “GS SC200” value amounted to 2.22 µM.
On to `COc1cc(F)c(F)cc1-c1ccc(OCC2CCCN(C(=O)C3CN(C(C)=O)CC3C(=O)O)C2)cc1` (stereo not drawn) [Example 15, 1-Acetyl-4-[3-(4′,5′-difluoro-2′-methoxy-biphenyl-4-yloxymethyl)-piperidine-1-carbonyl]-pyrrolidine-3-carboxylic acid], for which the EC50 was 5.78 µM and the “GS SC200” value amounted to 3.65 µM.
As for `COc1cc(F)c(F)cc1-c1ccc(OCC2CCN(C(=O)N(CCC(=O)O)Cc3ccccc3)C2)cc1` (stereo not drawn) [Example 29, 3-{Benzyl-[3-(4′,5′-difluoro-2′-methoxy-biphenyl-4-yloxymethyl)-pyrrolidine-1-carbonyl]-amino}-propionic acid], a half-maximal response (EC50) required 10.4 µM and the “GS SC200” value is 2.55 µM.
`COc1cc(F)c(F)cc1-c1ccc(OCC2CCCN(C(=O)N(C)CC(=O)NS(C)(=O)=O)C2)cc1` (stereo not drawn) [Example 31, 3-(4′,5′-Difluoro-2′-methoxy-biphenyl-4-yloxymethyl)-piperidine-1-carboxylic acid (2-methanesulfonylamino-2-oxo-ethyl)-methyl-amide]: it took 0.38 µM to reach a half-maximal effect (EC50) and the “GS SC200” value is 0.11 µM.
As to `COc1cc(F)c(F)cc1-c1ccc(OCC2CCCN(C(=O)N(CC(=O)O)Cc3ccccc3)C2)cc1` (stereo not drawn) [Example 22, {Benzyl-[3-(4′,5′-difluoro-2′-methoxy-biphenyl-4-yloxymethyl)-piperidine-1-carbonyl]-amino}-acetic acid], a half-maximal effect (EC50) was put at 2.65 µM and the “GS SC200” value was 0.12 µM.
For `COc1cc(F)c(F)cc1-c1ccc(OCC2CCCN(C(=O)CC(=O)O)C2)cc1` (stereo not drawn) [Example 2, 3-[3-(4′,5′-Difluoro-2′-methoxy-biphenyl-4-yloxymethyl)-piperidin-1-yl]-3-oxo-propionic acid], in that order: 0.51 µM and 0.05 µM.
For `COc1cc(F)c(F)cc1-c1ccc(OCC2CCCN(C(=O)C3(C(=O)O)CC3)C2)cc1` (stereo not drawn) [Example 1, 1-[3-(4′,5′-Difluoro-2′-methoxy-biphenyl-4-yloxymethyl)-piperidine-1-carbonyl]-cyclopropanecarboxylic acid], a half-maximal response (EC50) required 3.4 µM and the “GS SC200” value stood at 1.1 µM.
As to `COc1cc(F)c(F)cc1-c1ccc(OCC2CCCN(C(=O)CC(=O)NO)C2)cc1` (stereo not drawn) [Example 6, 3-[3-(4′,5′-Difluoro-2′-methoxy-biphenyl-4-yloxymethyl)-piperidin-1-yl]-N-hydroxy-3-oxo-propionamide], the concentration giving a half-maximal response (EC50) turned out to be 5.54 µM and the “GS SC200” value stood at 2.37 µM.
On to `COc1cc(F)c(F)cc1-c1ccc(OCC2CCN(C(=O)N(CC(=O)NS(C)(=O)=O)Cc3ccccc3)C2)cc1` (stereo not drawn) [Example 35, 3-(4′,5′-Difluoro-2′-methoxy-biphenyl-4-yloxymethyl)-pyrrolidine-1-carboxylic acid benzyl-(2-methanesulfonylamino-2-oxo-ethyl)-amide], for which the midpoint of the response, the EC50, lay at 0.82 µM and the “GS SC200” value was 0.28 µM.
For the compound `COc1cc(F)c(F)cc1-c1ccc(OCC2CCCN(C(=O)C3CN(C(N)=O)CC3C(=O)O)C2)cc1` (stereo not drawn) [Example 16, 1-Carbamoyl-4-[3-(4′,5′-difluoro-2′-methoxy-biphenyl-4-yloxymethyl)-piperidine-1-carbonyl]-pyrrolidine-3-carboxylic acid], the midpoint of the response, the EC50, lay at 6.48 µM and the “GS SC200” value amounted to 0.42 µM.
